This assay concerns the target human adenosine A2a receptor (Homo sapiens, UniProt P29274). The assay can be described thus: Adenosine A2a receptor whole cell cyclic AMP assay. The conditions noted are these: for IC50: HEK293 cells stably expressing human A2a, 1 hour compound treatment; for inhibition at 10 µM: HEK293, 1 h, read-out: A2a @ 100 μM Adenosine (A2a cAMP IC50).
[1] abbreviates: A2a @ 1 μM Adenosine (A2a cAMP IC50), 1 μM adenosine.
Setting [2] is: A2a @ 100 μM Adenosine (A2a cAMP IC50), 100 μM adenosine.

The text below walks through data of patent publication US12065444B2, “Substituted tetrazolo[1,5-a]pyrazines and tetrazolo[1,5-c]pyrimidines as adenosine receptor antagonists” (Crossignal Therapeutics, Inc., priority 2021, dated 2024).

Chain of human adenosine A2a receptor (P29274 whole entry): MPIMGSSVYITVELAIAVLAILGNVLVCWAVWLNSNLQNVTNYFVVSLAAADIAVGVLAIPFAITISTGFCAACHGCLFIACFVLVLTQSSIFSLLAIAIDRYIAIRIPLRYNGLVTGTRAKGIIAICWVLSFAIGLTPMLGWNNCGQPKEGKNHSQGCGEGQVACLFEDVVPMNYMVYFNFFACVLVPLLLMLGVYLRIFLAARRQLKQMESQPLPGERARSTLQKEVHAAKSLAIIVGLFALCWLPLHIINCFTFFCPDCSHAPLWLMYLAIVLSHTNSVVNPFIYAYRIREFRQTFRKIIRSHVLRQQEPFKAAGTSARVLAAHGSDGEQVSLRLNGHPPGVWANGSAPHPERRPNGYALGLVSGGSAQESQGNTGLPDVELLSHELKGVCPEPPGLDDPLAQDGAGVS

Consider `Cc1cc(-c2c(-c3ccccc3)nc(N)c3nnnn23)cc(Cl)n1` [1-32, 5-(2-chloro-6-methylpyridin-4-yl)-6-phenyltetrazolo[1,5-a]pyrazin-8-amine], for which, under setting [1], the IC50 (commonly the point on the concentration scale where inhibition reaches its midpoint) was in the range of 100 to 1000 nM.
Still for that read-out and setting: for `Cc1cc(-c2c(-c3ccccc3F)nc(N)c3nnnn23)cc(Cl)n1` [1-26, 5-(2-chloro-6-methylpyridin-4-yl)-6-(2-fluorophenyl)tetrazolo[1,5-a]pyrazin-8-amine] the value was 100 to 1000 nM.
Same read-out and setting: for `Cc1ccnc2ccc(-c3c(-c4cccnc4)nc(N)c4nnnn34)cc12` [1-47, 5-(4-methylquinolin-6-yl)-6-(pyridin-3-yl)tetrazolo[1,5-a]pyrazin-8-amine] the value was 100 to 1000 nM; for `Cn1cnc2ccc(-c3c(-c4ccc(F)cc4)nc(N)n4nnnc34)cc21` [1-30, 7-(4-fluorophenyl)-8-(1-methyl-1H-benzo[d]imidazol-6-yl)tetrazolo[1,5-c]pyrimidin-5-amine], less than 100 nM; for `Cn1cc(-c2c(-c3ccc(F)cc3)nc(N)n3nnnc23)ccc1=O` [1-29, 5-(5-amino-7-(4-fluorophenyl)tetrazolo[1,5-c]pyrimidin-8-yl)-1-methylpyridin-2(1H)-one], 100 to 1000 nM.
On to `Cc1cnc2ccc(-c3c(-c4ccc(C#N)cc4)nc(N)c4nnnn34)cn12` [1-51, 4-(8-amino-5-(3-methylimidazo[1,2-a]pyridin-6-yl)tetrazolo[1,5-a]pyrazin-6-yl)benzonitrile], for which, under setting [1], the IC50 is 100 to 1000 nM.
For `Nc1nc(-c2ccc(F)cc2)c(-c2cc3cnccc3s2)n2nnnc12` [1-16, 6-(4-fluorophenyl)-5-(thieno[3,2-c]pyridin-2-yl)tetrazolo[1,5-a]pyrazin-8-amine], the inhibition at 10 µM was less than 25%. The molecule further registered an IC50 under setting [1] of 100 to 1000 nM.
In turn, `Nc1nc(-c2ccc(F)cc2)c(-c2ccc3ncc(Cl)n3c2)n2nnnc12` [1-23, 5-(3-chloroimidazo[1,2-a]pyridin-6-yl)-6-(4-fluorophenyl)tetrazolo[1,5-a]pyrazin-8-amine] displayed an IC50 under setting [1] of less than 100 nM.
For the molecule `Cc1cc(-c2c(-c3ccc(F)cc3)nc(N)c3nnnn23)cc(C(F)F)n1` [1-54, 5-(2-(difluoromethyl)-6-methylpyridin-4-yl)-6-(4-fluorophenyl)tetrazolo[1,5-a]pyrazin-8-amine], the inhibition at 10 µM was less than 25%. In addition, under setting [1], the IC50 lay within 100 to 1000 nM.
As to `Cn1cc(-c2c(-c3ccc(F)cc3)nc(N)c3nnnn23)ccc1=O` [1-4, 5-(8-amino-6-(4-fluorophenyl)tetrazolo[1,5-a]pyrazin-5-yl)-1-methylpyridin-2(1H)-one], under setting [1], the IC50 was greater than 1000 nM.
Take `COc1ccc(-c2nc(N)c3nnnn3c2-c2ccc3ncc(C)n3c2)cc1` [1-56, 6-(4-methoxyphenyl)-5-(3-methylimidazo[1,2-a]pyridin-6-yl)tetrazolo[1,5-a]pyrazin-8-amine]: the IC50 is, setting by setting: under setting [1], 100 to 1000 nM; under setting [2], greater than 1000 nM.
Turning to `Cc1cc(-c2nc(N)c3nnnn3c2-c2ccc(F)cc2)cc(Cl)n1` [1-2, 6-(2-chloro-6-methylpyridin-4-yl)-5-(4-fluorophenyl)tetrazolo[1,5-a]pyrazin-8-amine], the IC50 under setting [1] is greater than 1000 nM.
On to `Cc1cc(Cl)cc(-c2c(-c3ccc(F)cc3)nc(N)c3nnnn23)c1` [1-3, 5-(3-chloro-5-methylphenyl)-6-(4-fluorophenyl)tetrazolo[1,5-a]pyrazin-8-amine], for which the IC50 under setting [1] is greater than 1000 nM.
For the molecule `COc1ccc(-c2nc(N)n3nnnc3c2-c2cc(Cl)nc(C(F)(F)F)c2)cc1` [1-59, 8-(2-chloro-6-(trifluoromethyl)pyridin-4-yl)-7-(4-methoxyphenyl)tetrazolo[1,5-c]pyrimidin-5-amine], the IC50 reads like this: under setting [1], 100 to 1000 nM; under setting [2], greater than 1000 nM.
`Nc1nc(-c2ccc(F)cc2)c(-c2ccc3ncnn3c2)n2nnnc12` [1-8, 5-([1,2,4]triazolo[1,5-a]pyridin-6-yl)-6-(4-fluorophenyl)tetrazolo[1,5-a]pyrazin-8-amine]: the concentration for half-maximal inhibition (IC50) under setting [1] is greater than 1000 nM.
Regarding `COc1ccc(-c2nc(N)c3nnnn3c2-c2ccc3ncn(C)c3c2)cc1` [1-53, 6-(4-methoxyphenyl)-5-(1-methyl-1H-benzo[d]imidazol-6-yl)tetrazolo[1,5-a]pyrazin-8-amine], the inhibition at 10 µM is less than 25%. For the same molecule, under setting [1], the IC50 is less than 100 nM.
Turning to `N#Cc1cnc2ccc(-c3c(-c4ccc(F)cc4)nc(N)c4nnnn34)cn12` [1-22, 6-(8-amino-6-(4-fluorophenyl)tetrazolo[1,5-a]pyrazin-5-yl)imidazo[1,2-a]pyridine-3-carbonitrile], the inhibition at 10 µM is less than 25%. Under setting [1], this molecule had an IC50 of less than 100 nM.
On the same counts, the results for `Nc1nc(-c2ccc(F)cc2)c(-c2cc(Cl)c3nccn3c2)n2nnnc12` [1-17, 5-(8-chloroimidazo[1,2-a]pyridin-6-yl)-6-(4-fluorophenyl)tetrazolo[1,5-a]pyrazin-8-amine] are less than 25% and 100 to 1000 nM.
As for `Cc1cc(-c2c(-c3ccc(F)cc3)nc(N)n3nnnc23)cc(C)n1` [1-28, 8-(2,6-dimethylpyridin-4-yl)-7-(4-fluorophenyl)tetrazolo[1,5-c]pyrimidin-5-amine], the inhibition at 10 µM was less than 25%. In addition, under setting [1], the IC50 is less than 100 nM.
With `Cc1cc(-c2c(-c3ccc(F)cc3)nc(N)n3nnnc23)cc(Cl)n1` [1-33, 8-(2-chloro-6-methylpyridin-4-yl)-7-(4-fluorophenyl)tetrazolo[1,5-c]pyrimidin-5-amine], the IC50 under setting [1] fell in the range of 100 to 1000 nM.
`Cc1cc(-c2c(-c3ccc(F)cc3)nc(N)n3nnnc23)cc(C(F)F)n1` [1-58, 8-(2-(difluoromethyl)-6-methylpyridin-4-yl)-7-(4-fluorophenyl)tetrazolo[1,5-c]pyrimidin-5-amine]: the IC50 is, setting by setting: under setting [1], 100 to 1000 nM; under setting [2], greater than 1000 nM.
As to `Nc1nc(-c2ccc(F)cc2)c(-c2ccc3ncncc3c2)n2nnnc12` [1-15, 6-(4-fluorophenyl)-5-(quinazolin-6-yl)tetrazolo[1,5-a]pyrazin-8-amine], the inhibition at 10 µM was less than 25%. The IC50 under setting [1] lay within 100 to 1000 nM.
On the same counts, the results for `Nc1nc(-c2ccc(F)cc2)c(-c2cc(Cl)nc(C(F)(F)F)c2)n2nnnc12` [1-55, 5-(2-chloro-6-(trifluoromethyl)pyridin-4-yl)-6-(4-fluorophenyl)tetrazolo[1,5-a]pyrazin-8-amine] are less than 25% and 100 to 1000 nM.
`Nc1nc(-c2ccc(F)cc2)c(-c2ccc3nc[nH]c3c2)c2nnnn12` [1-42, 8-(1H-benzo[d]imidazol-6-yl)-7-(4-fluorophenyl)tetrazolo[1,5-c]pyrimidin-5-amine] showed an IC50 under setting [1] of 100 to 1000 nM.
Same read-out and setting: to `COc1cc(-c2c(-c3ccc(F)cc3)nc(N)c3nnnn23)cc2cccnc12` [1-5, 6-(4-fluorophenyl)-5-(8-methoxyquinolin-6-yl)tetrazolo[1,5-a]pyrazin-8-amine] belongs 100 to 1000 nM; to `Cc1ccnc2ccc(-c3c(-c4ccc(C#N)cc4)nc(N)c4nnnn34)cc12` [1-44, 4-(8-amino-5-(4-methylquinolin-6-yl)tetrazolo[1,5-a]pyrazin-6-yl)benzonitrile], less than 100 nM; to `Cc1ccnc2ccc(-c3c(-c4ccccc4C#N)nc(N)c4nnnn34)cc12` [1-49, 2-(8-amino-5-(4-methylquinolin-6-yl)tetrazolo[1,5-a]pyrazin-6-yl)benzonitrile], 100 to 1000 nM.
`Cc1ccnc2ccc(-c3c(-c4ccccc4Cl)nc(N)c4nnnn34)cc12` [1-45, 6-(2-chlorophenyl)-5-(4-methylquinolin-6-yl)tetrazolo[1,5-a]pyrazin-8-amine] came in with an IC50 under setting [1] of 100 to 1000 nM.
In the case of `Nc1nc(-c2ccc(F)cc2)c(-c2cc(F)c3ncccc3c2)n2nnnc12` [1-19, 6-(4-fluorophenyl)-5-(8-fluoroquinolin-6-yl)tetrazolo[1,5-a]pyrazin-8-amine], the IC50 was 100 to 1000 nM under setting [1] and greater than 1000 nM under setting [2].
Under setting [1], `Cc1cc(-c2c(-c3ccc(F)cc3)nc(N)c3nnnn23)cc(Cl)n1` [1-1, 5-(2-chloro-6-methylpyridin-4-yl)-6-(4-fluorophenyl)tetrazolo[1,5-a]pyrazin-8-amine] registered a half-inhibitory concentration (IC50) of 100 to 1000 nM.
The same measure, in the same setting: to `Nc1nc(-c2ccc(F)cc2)c(-c2ccc3ncoc3c2)n2nnnc12` [1-10, 5-(benzo[d]oxazol-6-yl)-6-(4-fluorophenyl)tetrazolo[1,5-a]pyrazin-8-amine] belongs 100 to 1000 nM; to `Nc1nc(-c2ccc(F)cc2)c(-c2ccc3ncccc3c2)c2nnnn12` [1-37, 7-(4-fluorophenyl)-8-(quinolin-6-yl)tetrazolo[1,5-c]pyrimidin-5-amine], 100 to 1000 nM; to `Cc1ccnc2ccc(-c3c(-c4cccc(C#N)c4)nc(N)c4nnnn34)cc12` [1-31, 3-(8-amino-5-(4-methylquinolin-6-yl)tetrazolo[1,5-a]pyrazin-6-yl)benzonitrile], 100 to 1000 nM.
As to `Nc1nc(-c2ccc(F)cc2)c(-c2ccc3ncccc3c2)n2nnnc12` [1-11, 6-(4-fluorophenyl)-5-(quinolin-6-yl)tetrazolo[1,5-a]pyrazin-8-amine], the inhibition at 10 µM is less than 25%. The molecule also yielded an IC50 under setting [1] of less than 100 nM.
Under setting [1], `Cc1ccnc2ccc(-c3c(-c4ccncc4)nc(N)c4nnnn34)cc12` [1-46, 5-(4-methylquinolin-6-yl)-6-(pyridin-4-yl)tetrazolo[1,5-a]pyrazin-8-amine] registered an IC50 of 100 to 1000 nM.
As for `Cc1nc2ccc(-c3c(-c4ccc(F)cc4)nc(N)c4nnnn34)cn2n1` [1-18, 6-(4-fluorophenyl)-5-(2-methyl-[1,2,4]triazolo[1,5-a]pyridin-6-yl)tetrazolo[1,5-a]pyrazin-8-amine], the inhibition at 10 µM is less than 25%. This molecule yielded a concentration for half-maximal inhibition (IC50) under setting [1] greater than 1000 nM.
On the same counts, the results for `Nc1nc(-c2ccc(F)cc2)c(-c2ccc3nccn3c2)n2nnnc12` [1-9, 6-(4-fluorophenyl)-5-(imidazo[1,2-a]pyridin-6-yl)tetrazolo[1,5-a]pyrazin-8-amine] are less than 25% and 100 to 1000 nM.
With `Cc1cc(-c2c(-c3cccc(F)c3)nc(N)c3nnnn23)cc(Cl)n1` [1-27, 5-(2-chloro-6-methylpyridin-4-yl)-6-(3-fluorophenyl)tetrazolo[1,5-a]pyrazin-8-amine], under setting [1], the IC50 lay in the range of 100 to 1000 nM.
